# Experimental data reported in patent US10160755B2 (Plexxikon Inc., priority 2015, dated 2018).
# Target: T1, BA/F3-FLT3-ITD + F691L cells (Homo sapiens, UniProt P36888, F691L, cells depend on it, form not given)
# T1 sequence (P36888 1-993 F691L): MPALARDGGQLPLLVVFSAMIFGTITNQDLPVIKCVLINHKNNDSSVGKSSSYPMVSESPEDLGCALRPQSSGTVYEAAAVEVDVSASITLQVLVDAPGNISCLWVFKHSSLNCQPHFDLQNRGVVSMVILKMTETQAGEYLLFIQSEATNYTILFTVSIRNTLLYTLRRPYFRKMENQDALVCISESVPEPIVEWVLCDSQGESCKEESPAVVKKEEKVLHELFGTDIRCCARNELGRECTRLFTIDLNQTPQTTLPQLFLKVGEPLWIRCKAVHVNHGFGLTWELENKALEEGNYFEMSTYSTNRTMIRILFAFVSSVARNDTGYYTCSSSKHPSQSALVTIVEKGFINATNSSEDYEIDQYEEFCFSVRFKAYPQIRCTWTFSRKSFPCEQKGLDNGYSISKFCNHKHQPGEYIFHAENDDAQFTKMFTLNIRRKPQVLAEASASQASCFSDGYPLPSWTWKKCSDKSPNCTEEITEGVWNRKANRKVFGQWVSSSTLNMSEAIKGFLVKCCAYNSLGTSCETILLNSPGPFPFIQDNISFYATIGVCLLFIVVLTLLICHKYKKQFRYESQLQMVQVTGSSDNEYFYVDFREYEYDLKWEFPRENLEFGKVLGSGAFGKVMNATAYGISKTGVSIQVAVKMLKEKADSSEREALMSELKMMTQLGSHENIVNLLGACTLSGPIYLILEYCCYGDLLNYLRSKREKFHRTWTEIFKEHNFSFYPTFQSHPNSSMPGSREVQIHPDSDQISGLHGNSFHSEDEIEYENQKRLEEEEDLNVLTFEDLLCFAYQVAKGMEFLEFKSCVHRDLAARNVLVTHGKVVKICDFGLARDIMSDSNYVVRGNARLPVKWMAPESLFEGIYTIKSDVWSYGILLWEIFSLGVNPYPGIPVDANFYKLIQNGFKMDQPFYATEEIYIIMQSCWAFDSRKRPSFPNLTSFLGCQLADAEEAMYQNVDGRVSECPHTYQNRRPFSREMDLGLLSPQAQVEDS
# Experiment: BA/F3-FLT3-ITD + F691L cell proliferation assay (CellTiter-Glo)
# Assay type: cell-based, murine
# Conditions: BaF3 FLT3 ITD/F691L cells; read-out: Cell Activity (IC50 μM) BaF3_FLT3_ITD/F691L
# Outline: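 Murine BA/F3 cells transfected with full-length FLT3 carrying ITD plus D835Y or F691L, grown without IL-3 so growth depends on FLT3. Seeded at 1×10^4 cells/well and dosed with 8 points, 10 to 0.0046 μM, 0.2% DMSO, for three days at 37 °C. IC50 from CellTiter-Glo luminescence (ATP content).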
row,SMILES,GI50 [µM]
1,"O=S1(=O)CCCN1c1ccc(-c2cnc3[nH]cc(-c4ccc5ncn(C6CCCNC6)c5c4)c3c2)cc1 (stereo not drawn) [P-319, 2-[4-[3-[3-(3-piperidyl)benzimidazol-5-yl]-1H-pyrrolo[2,3-b]pyridin-5-yl]phenyl]-1,2-thiazolidine 1,1-dioxide]",0.0001 to 1
2,"COc1cnc2[nH]cc(-c3ccc4ncn(-c5ccccc5)c4c3)c2c1 [P-068, 5-methoxy-3-(3-phenylbenzimidazol-5-yl)-1H-pyrrolo[2,3-b]pyridine]",0.0001 to 1
3,"FC(F)n1cc(-c2cnc3[nH]cc(-c4ccc5ncn(C6CCCNC6)c5c4)c3c2)cn1 (stereo not drawn) [P-274, 5-[1-(difluoromethyl)pyrazol-4-yl]-3-[3-(3-piperidyl)benzimidazol-5-yl]-1H-pyrrolo[2,3-b]pyridine]",0.0001 to 1
4,"c1cc(N2CCOCC2)ncc1-c1cnc2[nH]cc(-c3ccc4ncn(C5CCCNC5)c4c3)c2n1 (stereo not drawn) [P-325, 4-[5-[7-[3-(3-piperidyl)benzimidazol-5-yl]-5H-pyrrolo[2,3-b]pyrazin-2-yl]-2-pyridyl]morpholine]",0.0001 to 1
5,"CCN1CCN(c2ccc(-c3cnc4[nH]cc(-c5ccc6ncn(C7CCCNC7)c6c5)c4n3)cn2)CC1 (stereo not drawn) [P-366, 2-[6-(4-ethylpiperazin-1-yl)-3-pyridyl]-7-[3-(3-piperidyl)benzimidazol-5-yl]-5H-pyrrolo[2,3-b]pyrazine]",0.0001 to 1
6,"COc1cc(C#Cc2cnc3[nH]cc(-c4ccc5ncn(C6CCCNC6)c5c4)c3n2)ccn1 (stereo not drawn) [P-280, 2-((2-methoxypyridin-4-yl)ethynyl)-7-(1-(piperidin-3-yl)-1H-benzo[d]imidazol-6-yl)-5H-pyrrolo[2,3-b]pyrazine]",0.0001 to 1
7,"O=S1(=O)CCCCN1c1cc(-c2cnc3[nH]cc(-c4ccc5ncn(C6CCCNC6)c5c4)c3n2)ccn1 (stereo not drawn) [P-310, 2-[4-[7-[3-(3-piperidyl)benzimidazol-5-yl]-5H-pyrrolo[2,3-b]pyrazin-2-yl]-2-pyridyl]thiazinane 1,1-dioxide]",0.0001 to 1
8,"O=S1(=O)CCCN1c1cc(-c2cnc3[nH]cc(-c4ccc5ncn(C6CCCNC6)c5c4)c3c2)ccn1 (stereo not drawn) [P-311, 2-[4-[3-[3-(3-piperidyl)benzimidazol-5-yl]-1H-pyrrolo[2,3-b]pyridin-5-yl]-2-pyridyl]-1,2-thiazolidine 1,1-dioxide]",0.0001 to 1
9,"CC(C)(C)n1cnc2ccc(-c3c[nH]c4ncc(-c5ccnc(N6CCCCS6(=O)=O)c5)nc34)cc21 [P-309, 2-[4-[7-(3-tert-butylbenzimidazol-5-yl)-5H-pyrrolo[2,3-b]pyrazin-2-yl]-2-pyridyl]thiazinane 1,1-dioxide]",0.0001 to 1
10,"CN1CCN(c2ccc(-c3cnc4[nH]cc(-c5ccc6ncn(C(C)(C)C)c6c5)c4n3)cc2)CC1 [P-341, 7-(3-tert-butylbenzimidazol-5-yl)-2-[4-(4-methylpiperazin-1-yl)phenyl]-5H-pyrrolo[2,3-b]pyrazine]",0.0001 to 1
11,"CCN1CCN(c2ccc(-c3cnc4[nH]cc(-c5ccc6ncn(C7CCCNC7)c6c5)c4n3)cc2)CC1 (stereo not drawn) [P-359, 2-[4-(4-ethylpiperazin-1-yl)phenyl]-7-[3-(3-piperidyl)benzimidazol-5-yl]-5H-pyrrolo[2,3-b]pyrazine]",0.0001 to 1
12,"c1cc(N2CCCCC2)ncc1-c1cnc2[nH]cc(-c3ccc4ncn(C5CCCNC5)c4c3)c2n1 (stereo not drawn) [P-348, 7-[3-(3-piperidyl)benzimidazol-5-yl]-2-[6-(1-piperidyl)-3-pyridyl]-5H-pyrrolo[2,3-b]pyrazine]",0.0001 to 1
13,"O=S1(=O)CCCN1c1cc(-c2cnc3[nH]cc(-c4ccc5ncn(C6CCCNC6)c5c4)c3n2)ccn1 (stereo not drawn) [P-295, 2-[4-[7-[3-(3-piperidyl)benzimidazol-5-yl]-5H-pyrrolo[2,3-b]pyrazin-2-yl]-2-pyridyl]-1,2-thiazolidine 1,1-dioxide]",0.0001 to 1
14,"CC(C)(C)n1cnc2ccc(-c3c[nH]c4ncc(-c5cccc(N6CCCCC6)c5)nc34)cc21 [P-336, 7-(3-tert-butylbenzimidazol-5-yl)-2-[3-(1-piperidyl)phenyl]-5H-pyrrolo[2,3-b]pyrazine]",0.0001 to 1
15,"CCN1CCN(c2cc(-c3cnc4[nH]cc(-c5ccc6ncn(C(C)(C)C)c6c5)c4n3)ccn2)CC1 [P-328, 7-(3-tert-butylbenzimidazol-5-yl)-2-[2-(4-ethylpiperazin-1-yl)-4-pyridyl]-5H-pyrrolo[2,3-b]pyrazine]",0.0001 to 1
16,"CN1CCN(c2ccc(-c3cnc4[nH]cc(-c5ccc6ncn(C7CCCNC7)c6c5)c4n3)cc2)CC1 (stereo not drawn) [P-344, 2-[4-(4-methylpiperazin-1-yl)phenyl]-7-[3-(3-piperidyl)benzimidazol-5-yl]-5H-pyrrolo[2,3-b]pyrazine]",0.0001 to 1
17,"CC(C)(C)n1cnc2ccc(-c3n[nH]c4ncc(-c5ccnc(N6CCOCC6)c5)cc34)cc21 [P-297, 4-[4-[3-(3-tert-butylbenzimidazol-5-yl)-1H-pyrazolo[3,4-b]pyridin-5-yl]-2-pyridyl]morpholine]",0.0001 to 1

# Now from value to molecule:
row,GI50 [µM],SMILES
1,0.0001 to 1,"Cc1ncc(-c2cnc3[nH]cc(-c4ccc5ncn(C(C)(C)C)c5c4)c3n2)cn1 [P-289, 7-(3-tert-butylbenzimidazol-5-yl)-2-(2-methylpyrimidin-5-yl)-5H-pyrrolo[2,3-b]pyrazine]"
2,0.0001 to 1,"Cc1ccc(-c2cnc3[nH]cc(-c4ccc5ncn(C(C)(C)C)c5c4)c3n2)cn1 [P-388, 7-(3-tert-butylbenzimidazol-5-yl)-2-(6-methyl-3-pyridyl)-5H-pyrrolo[2,3-b]pyrazine]"
3,0.0001 to 1,"CC(C)(C)n1cnc2ccc(-c3c[nH]c4ncc(-c5ccc(N6CCOCC6)nc5)nc34)cc21 [P-326, 4-[5-[7-(3-tert-butylbenzimidazol-5-yl)-5H-pyrrolo[2,3-b]pyrazin-2-yl]-2-pyridyl]morpholine]"
4,0.0001 to 1,"COc1cc(C#Cc2cnc3[nH]cc(-c4ccc5ncn(C(C)(C)C)c5c4)c3n2)ccn1 [P-279, 7-(1-(tert-butyl)-1H-benzo[d]imidazol-6-yl)-2-((2-methoxypyridin-4-yl)ethynyl)-5H-pyrrolo[2,3-b]pyrazine]"
5,0.0001 to 1,"CC(C)(C)n1cnc2ccc(-c3c[nH]c4ncc(-c5ccc(N6CCOCC6)nc5)cc34)cc21 [P-322, 4-[5-[3-(3-tert-butylbenzimidazol-5-yl)-1H-pyrrolo[2,3-b]pyridin-5-yl]-2-pyridyl]morpholine]"
6,0.0001 to 1,"CC(C)(C)n1cnc2ccc(-c3c[nH]c4ncc(-c5ccc(N6CCCCC6)nc5)nc34)cc21 [P-347, 7-(1-(tert-butyl)-1H-benzo[d]imidazol-6-yl)-2-(6-(piperidin-1-yl)pyridin-3-yl)-5H-pyrrolo[2,3-b]pyrazine]"
7,0.0001 to 1,"CC(C)(C)n1cnc2ccc(-c3c[nH]c4ncc(-c5ccnc(N6CCCCC6)c5)nc34)cc21 [P-338, 7-(3-tert-butylbenzimidazol-5-yl)-2-[2-(1-piperidyl)-4-pyridyl]-5H-pyrrolo[2,3-b]pyrazine]"
8,0.0001 to 1,"CC(C)(C)n1cnc2ccc(-c3c[nH]c4ncc(-c5cnc(O)nc5)nc34)cc21 [P-363, 5-[7-(3-tert-butylbenzimidazol-5-yl)-5H-pyrrolo[2,3-b]pyrazin-2-yl]pyrimidin-2-ol]"
9,0.0001 to 1,"COc1cc(-c2cnc3[nH]cc(-c4ccc5ncn(C(C)(C)C)c5c4)c3c2)c(OC)nn1 [P-292, 1-tert-butyl-6-[5-(3,6-dimethoxypyridazin-4-yl)-1H-pyrrolo[2,3-b]pyridin-3-yl]benzimidazole]"
10,0.0001 to 1,"CC(C)(C)n1cnc2ccc(-c3c[nH]c4ncc(-c5cnc(C#N)nc5)nc34)cc21 [P-352, 5-[7-(3-tert-butylbenzimidazol-5-yl)-5H-pyrrolo[2,3-b]pyrazin-2-yl]pyrimidine-2-carbonitrile]"
11,0.0001 to 1,"COc1ncc(-c2cnc3[nH]cc(-c4ccc5ncn(C(C)(C)C)c5c4)c3n2)cc1C#N [P-405, 5-[7-(3-tert-butylbenzimidazol-5-yl)-5H-pyrrolo[2,3-b]pyrazin-2-yl]-2-methoxy-pyridine-3-carbonitrile]"
12,0.0001 to 1,"Cc1cc(C#Cc2cnc3[nH]cc(-c4ccc5ncn(C(C)(C)C)c5c4)c3n2)cc(C)n1 [P-282, 7-(3-tert-butylbenzimidazol-5-yl)-2-[2-(2,6-dimethyl-4-pyridyl)ethynyl]-5H-pyrrolo[2,3-b]pyrazine]"
13,0.0001 to 1,"Cc1ncc(C#Cc2cnc3[nH]cc(-c4ccc5ncn(C(C)(C)C)c5c4)c3c2)cn1 [P-383, 1-tert-butyl-6-[5-[2-(2-methylpyrimidin-5-yl)ethynyl]-1H-pyrrolo[2,3-b]pyridin-3-yl]benzimidazole]"
